We go through 11 molecules from patent EP4603105A1, “PHARMACEUTICAL COMPOSITION CONTAINING CYCLIC COMPOUND HAVING SELECTIVE KRAS INHIBITORY EFFECT AGAINST HRAS AND NRAS” (CHUGAI SEIYAKU KABUSHIKI KAISHA, priority 2022, dated 2024).

The subject of assay [1] is human lung cancer strain NCI-H441. The assay is classed as cell-based. Put shortly: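 Proliferation was scored by […] measured after the reagent was added to cultures kept at 37°C in 5% carbon dioxide.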
For assay [2], the target named is HRAS wild-type protein (Homo sapiens, UniProt P01112). The assay can be described thus: Binding to HRAS by surface plasmon resonance (SPR), KD and KD ratio to KRAS. Put shortly:
(§1)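 SPR, 30°C: Avi-biotin RAS·GDP captured via Biotin CAPture (~100–300 RU); running buffer HBS pH 7.4, 1 mM DTT, 10 mM MgCl2, 0.01% Tween 20, 10 µM GDP, 4% DMSO. Single-cycle kinetics, 100 µL/min, 75 s injections; 1:1 model → KD.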

Assay [3] concerns the target GDP-bound NRAS wild-type protein (Homo sapiens, UniProt P01111). Put plainly: Binding to NRAS by surface plasmon resonance (SPR), KD and KD ratio to KRAS. Put shortly:
as §1

The mark [4] stands for this setting: ratio of KD for HRAS wild-type protein to KD for KRAS.
The mark [5] stands for this setting: ratio of KD for GDP-bound NRAS wild-type protein to KD for KRAS.
Setting [6] is: ratio of the KD value with respect to HRAS wild-type protein to the KD value with respect to KRAS.
Setting [7] is: ratio of the KD value with respect to GDP-bound NRAS wild-type protein to the KD value with respect to KRAS.

Read-outs that look alike come from different tables or passages of the source. *1 amine or outer side, *2 acyl side, *3 side chain or, on linkers, in order; H or OH if unused. Where a SMILES comes first, the peptide text is derived from it. Bridges are numbered along the chain shown (N, C = ends). [ ]: non-standard residue; d: D form. The star is where a group is joined. hPhe(3,5-F2-4-CF3) = N[C@@H](CCc1cc(F)c(C(F)(F)F)c(F)c1)C(=O)O; hPhe(3-Cl-4-CF3) = N[C@@H](CCc1ccc(C(F)(F)F)c(Cl)c1)C(=O)O; NPrPhe(4-CF3) = CCCN[C@@H](Cc1ccc(C(F)(F)F)cc1)C(=O)O; NEtPhe(4-CF3) = CCN[C@@H](Cc1ccc(C(F)(F)F)cc1)C(=O)O; NEtAsp = CCN([C@@H](CC(=O)[*:3])C(=O)[*:2])[*:1]; X16 = O=C([C@@H](N[*:1])C1CC(F)(F)C1)[*:2]; NMeGly(cPent) = CN[C@H](C(=O)O)C1CCCC1; Gly(N-propargyl) = C#CCNCC(=O)O; NMeD = CN[C@@H](CC(=O)O)C(=O)O; NMeL = CN[C@@H](CC(C)C)C(=O)O; Morpholide = C1CN(*)CCO1; NMeA = CN[C@@H](C)C(=O)O; Ac5c = NC1(C(=O)O)CCCC1; Aze = O=C(O)[C@@H]1CCN1; Ac4c = NC1(C(=O)O)CCC1; Aib = CC(C)(N)C(=O)O; Sar = CNCC(=O)O

GDP-bound NRAS wild-type protein, sequence (P01111 whole entry): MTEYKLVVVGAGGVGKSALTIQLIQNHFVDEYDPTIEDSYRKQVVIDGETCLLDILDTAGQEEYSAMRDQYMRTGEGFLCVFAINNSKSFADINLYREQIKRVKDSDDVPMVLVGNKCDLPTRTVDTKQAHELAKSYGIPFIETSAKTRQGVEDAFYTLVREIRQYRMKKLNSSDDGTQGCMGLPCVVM
HRAS wild-type protein, sequence (P01112 whole entry): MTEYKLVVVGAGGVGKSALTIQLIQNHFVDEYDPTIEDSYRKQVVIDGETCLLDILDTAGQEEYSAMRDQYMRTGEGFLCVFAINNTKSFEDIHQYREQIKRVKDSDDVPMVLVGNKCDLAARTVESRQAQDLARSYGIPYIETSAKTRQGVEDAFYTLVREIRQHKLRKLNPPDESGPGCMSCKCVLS

For the molecule `CC[C@H](C)[C@@H]1NC(=O)[C@H](CC(C)C)N(C)C(=O)C[C@@H](C(=O)N2CCOCC2)N(C)C(=O)[C@H](C2CCCC2)N(C)C(=O)C(C)(C)NC(=O)[C@@H]2CCCN2C(=O)[C@H](CCc2ccc(C(F)(F)F)c(Cl)c2)NC(=O)CN(C)C(=O)[C@H](Cc2ccc(C(F)(F)F)cc2)N(CC)C(=O)[C@@H]2CCN2C(=O)[C@H](C)N(C)C1=O` [PP0221] ([NMeL]I[NMeA][Aze][NEtPhe(4-CF3)][Sar][hPhe(3-Cl-4-CF3)]P[Aib][NMeGly(cPent)][NMeD]-Morpholide; lactam N-11), in assay [1], the IC50 is 2.9 nM. The “HRAS /KRAS” value in assay [2] (setting [4]) was “C (A compound having a KD ratio of 0.1 or more and less than 3 is denoted as C)”. In assay [3] (setting [5]), the “NRAS /KRAS” value was “C (A compound having a KD ratio of 0.1 or more and less than 3 is denoted as C)”.
With `CCCN1C(=O)CN(C)C(=O)CN(C)C(=O)[C@H]([C@@H](C)CC)NC(=O)[C@H](CC(C)C)N(C)C(=O)C[C@@H](C(=O)N2CCOCC2)N(CC)C(=O)[C@H](C2CCCC2)N(C)C(=O)C2(CCC2)NC(=O)[C@@H]2CCCN2C(=O)[C@H](CCc2ccc(C(F)(F)F)c(Cl)c2)NC(=O)CN(C)C(=O)[C@@H]1Cc1ccc(C(F)(F)F)cc1` [PP1953] ([NMeL]I[Sar][Sar][NPrPhe(4-CF3)][Sar][hPhe(3-Cl-4-CF3)]P[Ac4c][NMeGly(cPent)][NEtAsp]-Morpholide; lactam N-11), in assay [1], the half-inhibitory concentration (IC50) came out at 8.7 nM. Also, in assay [2] (setting [6]), the “HRAS /KRAS” value was “B (a compound having 3 or more and less than 10 is denoted as B)”. In assay [3] (setting [7]), the “NRAS /KRAS” value is “B (a compound having 3 or more and less than 10 is denoted as B)”.
On to `CCCN(C)C(=O)[C@@H]1CC(=O)N(C)[C@@H](COCC)C(=O)N[C@@H]([C@@H](C)CC)C(=O)N(C)CC(=O)N(C)[C@H]2C/C=C\CCN(C2=O)[C@@H](Cc2ccc(C(F)(F)F)cc2)C(=O)N(C)CC(=O)N[C@@H](CCc2ccc(C(F)(F)F)c(OC)c2)C(=O)N2C[C@@H](C)C[C@H]2C(=O)NC2(CC(C)(C)C2)C(=O)N(C)[C@@H](C2CCCC2)C(=O)N1C` [PP1991], for which the concentration for half-maximal inhibition (IC50) in assay [1] was 10.8 nM. For the same molecule, the “HRAS /KRAS” value in assay [2] (setting [6]) is “A (a compound having 10 or more and less than 20 is denoted as A)”. In addition, the “NRAS /KRAS” value in assay [3] (setting [7]) is “A (a compound having 10 or more and less than 20 is denoted as A)”.
The molecule `CCO[C@@H]1C[C@H]2C(=O)NC3(CCC3)C(=O)N(C)[C@@H](C3CCCC3)C(=O)N(C)[C@H](C(=O)N(C)C)CC(=O)N(C)[C@@H](CC)C(=O)N[C@@H]([C@@H](C)CC)C(=O)N(C)CC(=O)N(C)[C@H]3CCCCN(C3=O)[C@@H](Cc3ccc(C(F)(F)F)cc3)C(=O)N(C)CC(=O)N[C@@H](CCc3c(F)c(F)c(C(F)(F)F)c(F)c3F)C(=O)N2C1` [PP0886] came in with a half-inhibitory concentration (IC50) in assay [1] of 14.3 nM. Besides, the “HRAS /KRAS” value in assay [2] (setting [4]) was “B (a compound having 3 or more and less than 10 is denoted as B)”. In assay [3] (setting [5]), the “NRAS /KRAS” value is “C (A compound having a KD ratio of 0.1 or more and less than 3 is denoted as C)”.
`CCC[C@H]1C(=O)N[C@@H]([C@@H](C)CC)C(=O)N(C)CC(=O)N(C)[C@H]2C/C=C\CCN(C2=O)[C@@H](Cc2ccc(C)cc2)C(=O)N(C)CC(=O)N[C@@H](CCc2ccc(C(F)(F)F)c(Cl)c2)C(=O)N2C[C@H](CC)C[C@H]2C(=O)NC2(CC(C)(C)C2)C(=O)N(C)[C@@H](C2CCCC2)C(=O)N(C)[C@H](C(=O)N(C)C)CC(=O)N1C` [PP2212]: half-maximal inhibition in assay [1] (IC50) required 23.5 nM. Besides, the “HRAS /KRAS” value in assay [2] (setting [6]) was “B (a compound having 3 or more and less than 10 is denoted as B)”. Also, in assay [3] (setting [7]), the “NRAS /KRAS” value is “A (a compound having 10 or more and less than 20 is denoted as A)”.
As to `CC[C@H](C)[C@@H]1NC(=O)[C@H](CC(C)C)N(C)C(=O)C[C@@H](C(=O)N2CCOCC2)N(C)C(=O)[C@H](C2CCCC2)N(C)C(=O)C2(CCCC2)NC(=O)[C@@H]2CCCN2C(=O)[C@H](CCc2ccc(C(F)(F)F)c(Cl)c2)NC(=O)CN(C)C(=O)[C@H](Cc2ccc(Cl)cc2)N2C/C=C\CC[C@@H](C2=O)N(C)C(=O)CN(C)C1=O` [PP0608], the concentration for half-maximal inhibition (IC50) in assay [1] worked out at 252 nM. The “HRAS /KRAS” value in assay [2] (setting [6]) was “B (a compound having 3 or more and less than 10 is denoted as B)”. Moreover, in assay [3] (setting [7]), the “NRAS /KRAS” value is “C (A compound having a KD ratio of 0.1 or more and less than 3 is denoted as C)”.
With `CC[C@H](C)[C@@H]1NC(=O)[C@H](COC)N(C)C(=O)C[C@@H](C(=O)N(C)C)N(C)C(=O)[C@H](C2CCCC2)N(C)C(=O)C2(CC(C)(C)C2)NC(=O)[C@@H]2CCCCN2C(=O)[C@H](CCc2cc(F)c(C(F)(F)F)c(F)c2)NC(=O)CN(C)C(=O)[C@H](Cc2ccc(C(F)(F)F)cc2)N2CC/C=C\C[C@@H](C2=O)N(C)C(=O)CN(C)C1=O` [PP2907], the concentration for half-maximal inhibition (IC50) in assay [1] amounted to 46.3 nM. Besides, the “HRAS /KRAS” value in assay [2] (setting [4]) is “A (a compound having 10 or more and less than 20 is denoted as A)”. For the same molecule, the “NRAS /KRAS” value in assay [3] (setting [5]) is on record as “AA (a compound having 20 or more is denoted as AA)”.
Turning to `CCOC[C@H]1C(=O)N[C@@H]([C@@H](C)CC)C(=O)N(C)CC(=O)N(C)[C@H]2C/C=C\CCN(C2=O)[C@@H](Cc2ccc(C(C)C)cc2)C(=O)N(C)CC(=O)N[C@@H](CCc2ccc(C(F)(F)F)c(OC)c2)C(=O)N2C[C@@H](C)C[C@H]2C(=O)NC2(CC(C)(C)C2)C(=O)N(C)[C@@H](C2CCCC2)C(=O)N(C)[C@H](C(=O)N(C)CC)CC(=O)N1C` [PP2701], the IC50 in assay [1] (NCI-H441 cells, 4 days, CellTiter-Glo, read-out: NCl-H441 IC50) was determined as 21.7 nM. The “HRAS /KRAS” value in assay [2] (setting [4]) is “A (a compound having 10 or more and less than 20 is denoted as A)”. Further, in assay [3] (setting [5]), the “NRAS /KRAS” value is “A (a compound having 10 or more and less than 20 is denoted as A)”.
`CC[C@H](C)[C@@H]1NC(=O)[C@H](COC)N(C)C(=O)C[C@@H](C(=O)N2CCOCC2)N(C)C(=O)[C@H](C2CCCC2)N(C)C(=O)C2(CCC2)NC(=O)[C@@H]2CCCN2C(=O)[C@H](CCc2cc(F)c(C(F)(F)F)c(F)c2)NC(=O)CN(C)C(=O)[C@H](Cc2ccc(C(F)(F)F)cc2)N2CCCCC[C@@H](C2=O)N(C)C(=O)[C@@H]2CCN2C1=O` [PP0865]: the IC50 in assay [1] is 767 nM. Besides, the “HRAS /KRAS” value in assay [2] (setting [4]) is “B (a compound having 3 or more and less than 10 is denoted as B)”. Further, the “NRAS /KRAS” value in assay [3] (setting [5]) was “B (a compound having 3 or more and less than 10 is denoted as B)”.
Take `CCCN1C(=O)CN(C)C(=O)CN(C)C(=O)[C@H](C2CC(F)(F)C2)NC(=O)[C@H](CC(C)C)N(C)C(=O)C[C@@H](C(=O)N(C)C)N(C)C(=O)[C@H](C2CCCC2)N(C)C(=O)C2(CCCC2)NC(=O)[C@@H]2CCCN2C(=O)[C@H](CCc2cc(F)c(C(F)(F)F)c(F)c2)NC(=O)CN(C)C(=O)[C@@H]1Cc1ccc(C(F)(F)F)cc1` [PP0748] ([NMeL][X16][Sar][Sar][NPrPhe(4-CF3)][Sar][hPhe(3,5-F2-4-CF3)]P[Ac5c][NMeGly(cPent)][NMeD]-NMe2; lactam N-11): the 50% inhibitory concentration (IC50) in assay [1] worked out at 10.7 nM. Further, the “HRAS /KRAS” value in assay [2] (setting [6]) was “B (a compound having 3 or more and less than 10 is denoted as B)”. Moreover, the “NRAS /KRAS” value in assay [3] (setting [7]) was “B (a compound having 3 or more and less than 10 is denoted as B)”.
As to `C#CCN1CC(=O)N(C)CC(=O)N(CCC)[C@@H](Cc2ccc(C(F)(F)F)cc2)C(=O)N(C)CC(=O)N[C@@H](CCc2ccc(C(F)(F)F)c(Cl)c2)C(=O)N2CCC[C@H]2C(=O)NC2(CCCC2)C(=O)N(C)[C@@H](C2CCCC2)C(=O)N(C)[C@H](C(=O)N2CCOCC2)CC(=O)N(C)[C@@H](CC(C)C)C(=O)N[C@@H]([C@@H](C)CC)C1=O` [PP0750] ([NMeL]I[Gly(N-propargyl)][Sar][NPrPhe(4-CF3)][Sar][hPhe(3-Cl-4-CF3)]P[Ac5c][NMeGly(cPent)][NMeD]-Morpholide; lactam N-11), in assay [1], half-maximal inhibition (IC50) required 11.1 nM. In addition, the “HRAS /KRAS” value in assay [2] (setting [6]) was “C (A compound having a KD ratio of 0.1 or more and less than 3 is denoted as C)”. Moreover, in assay [3] (setting [7]), the “NRAS /KRAS” value is “B (a compound having 3 or more and less than 10 is denoted as B)”.
